This passage reports aqueous solubility results from patent US8420130B1, “Pharmaceutical formulation of a didemnin compound” (Pharma Mar S.A., priority 1998, dated 2013).

This series is described as follows: Solubility testing of aplidine. The settings on record: water. In kind it is physicochemical. The source says: The antitumour agent aplidine (dehydrodidemnin B) is a natural occurring cyclic depsipeptide isolated from the Mediterranean runicate Aplidium albicans. Aplidine has been characterised by using several chromatographic and spectrometric techniques. […] Moreover, the long-term stability of aplidine in solution is currently unknown.

dehydrodidemnin B [aplidine]: the aqueous solubility entry is “poor aqueous solubility”.
